# Measurements reported in ChEMBL document CHEMBL1201862, “PubChem BioAssay data set” (2004).
#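 Exposure lasted 48 hours, with cells grown in 96-well plates and compounds tested at five concentrations. GI50: concentration for 50% inhibition of growth.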 The source made the active and inactive calls. Cut-off read from the data, not from the text of the source: active = GI50 up to about 1.1 µM and inactive = higher.
# How the values were obtained:
# Assay in all cases: inhibition of tumour cell growth, NCI panel, 48 h
# [1] = test system: 786-0
# [2] = test system: COLO 205
# [3] = test system: EKVX
# [4] = test system: HCC 2998
# [5] = test system: HCT-15
# [6] = test system: HOP-92
# [7] = test system: KM12
# [8] = test system: MOLT-4
# [9] = test system: NCI-H226
# [10] = test system: NCI-H522
# [11] = test system: OVCAR-4
# [12] = test system: RPMI-8226
# [13] = test system: SF-295
# [14] = test system: SK-OV-3
# [15] = test system: SNB-19
# [16] = test system: TK-10
# [17] = test system: UACC-62
SMILES,GI50 [1],GI50 [2],GI50 [3],GI50 [4],GI50 [5],GI50 [6],GI50 [7],GI50 [8],GI50 [9],GI50 [10],GI50 [11],GI50 [12],GI50 [13],GI50 [14],GI50 [15],GI50 [16],GI50 [17]
CCCC1C[C@H]2CCCCN2[C@H]2CCCN12 (stereo partly drawn),> 100 µM (inactive),> 47.4 µM (inactive),> 100 µM (inactive),> 100 µM (inactive),> 46.7 µM,> 100 µM (inactive),> 100 µM (inactive),> 100 µM (inactive),> 100 µM (inactive),> 100 µM (inactive),> 100 µM (inactive),> 43.4 µM (inactive),> 100 µM (inactive),> 100 µM (inactive),> 100 µM (inactive),> 100 µM (inactive),> 100 µM (inactive)
CCCCCCCCCCCCCCCc1nnc(SCC(=O)O)[nH]1,18.5 µM (inactive),–,> 100 µM (inactive),43.9 µM (inactive),31.6 µM,32.1 µM (inactive),48.3 µM (inactive),11.7 µM (inactive),–,41.6 µM (inactive),45.7 µM (inactive),78.2 µM (inactive),40 µM (inactive),45.4 µM (inactive),49.7 µM (inactive),13.2 µM (inactive),42.2 µM (inactive)
Cc1cc(C=O)c2c(=O)c3c(O)ccc(/C=C/C(C)C)c3oc2c1,39.8 µM (inactive),> 100 µM (inactive),–,> 100 µM (inactive),30.5 µM,68.9 µM (inactive),86.9 µM (inactive),28.9 µM (inactive),> 100 µM (inactive),28.7 µM (inactive),31.4 µM (inactive),23.1 µM (inactive),> 100 µM (inactive),–,> 100 µM (inactive),> 100 µM (inactive),56.8 µM (inactive)
CC(=O)C1Cn2c(=O)c3cc4ccccc4cc3c(=O)n2C=C1C (stereo not drawn),> 100 µM (inactive),> 100 µM (inactive),> 100 µM (inactive),> 100 µM (inactive),76.7 µM,61.2 µM (inactive),> 100 µM (inactive),> 100 µM (inactive),> 100 µM (inactive),> 100 µM (inactive),> 100 µM (inactive),> 100 µM (inactive),> 100 µM (inactive),> 100 µM (inactive),> 100 µM (inactive),> 100 µM (inactive),–
COc1cc2c(cc1O)C=NCC2,> 100 µM (inactive),65.8 µM (inactive),> 100 µM (inactive),–,> 100 µM,> 100 µM (inactive),> 100 µM (inactive),60.5 µM (inactive),> 100 µM (inactive),> 100 µM (inactive),> 100 µM (inactive),> 100 µM (inactive),> 100 µM (inactive),> 100 µM (inactive),> 100 µM (inactive),> 100 µM (inactive),> 100 µM (inactive)
N#C/C(=C(/S)Nc1ccccc1)c1nc2ccccc2[nH]1,> 10 µM (inactive),> 10 µM (inactive),> 10 µM (inactive),> 10 µM (inactive),> 10 µM,> 10 µM (inactive),> 10 µM (inactive),> 10 µM (inactive),> 10 µM (inactive),> 10 µM (inactive),> 10 µM (inactive),> 10 µM (inactive),–,0.634 µM (active),> 10 µM (inactive),> 10 µM (inactive),> 10 µM (inactive)
CC(C)C(=O)/C=C/c1ccc(Cl)cc1,11.1 µM (inactive),28.2 µM (inactive),–,18 µM (inactive),–,16.7 µM (inactive),11.5 µM (inactive),12.2 µM (inactive),–,11 µM (inactive),12.9 µM (inactive),5.37 µM (inactive),13.5 µM (inactive),40.5 µM (inactive),13.4 µM (inactive),–,15.4 µM (inactive)
COc1cc(C2c3cc4c(cc3[C@@H](N(C)c3ccc(N(C)C)cc3)C3COC(=O)C23)OCO4)cc(OC)c1O (stereo partly drawn),0.489 µM (active),0.479 µM (active),15.8 µM (inactive),0.785 µM (active),0.449 µM,1.99 µM (inactive),0.377 µM (active),0.434 µM (active),0.292 µM (active),0.0589 µM (active),9.57 µM (inactive),0.923 µM (active),0.147 µM (active),0.402 µM (active),2.15 µM (inactive),18.5 µM (inactive),0.472 µM (active)
NC1=NN(c2ccccc2)C(=O)C1/C(=N\NC(=O)c1cc2ccccc2cc1O)C(=O)Nc1cccc(C(F)(F)F)c1 (stereo not drawn),38.1 µM (inactive),35.7 µM (inactive),35.6 µM (inactive),46.2 µM (inactive),–,33.2 µM (inactive),37.3 µM (inactive),16.3 µM (inactive),–,–,42.5 µM (inactive),39.7 µM (inactive),49.1 µM (inactive),–,75 µM (inactive),> 100 µM (inactive),35.2 µM (inactive)
CC1(C)C(=O)C(C)(C)C1=NN,> 100 µM (inactive),> 100 µM (inactive),–,> 100 µM (inactive),> 100 µM,> 100 µM (inactive),> 100 µM (inactive),> 100 µM (inactive),> 100 µM (inactive),> 100 µM (inactive),> 100 µM (inactive),> 100 µM (inactive),> 100 µM (inactive),> 100 µM (inactive),> 100 µM (inactive),> 100 µM (inactive),> 100 µM (inactive)
NC(=O)c1c[se]c(C2OC(COP(=O)(O)CP(=O)(O)OCC3OC(n4cnc5c(N)ncnc54)C(O)C3O)C(O)C2O)n1 (stereo not drawn),63.1 µM (inactive),93.1 µM (inactive),> 100 µM (inactive),–,–,> 100 µM (inactive),66.5 µM (inactive),35.3 µM (inactive),> 100 µM (inactive),> 100 µM (inactive),> 100 µM (inactive),–,53.3 µM (inactive),> 100 µM (inactive),> 100 µM (inactive),–,–
COc1cccc(NC(=O)CSc2nnc(-c3ccc(NC(C)=O)cc3)o2)c1,> 100 µM (inactive),> 100 µM (inactive),–,–,> 100 µM,> 100 µM (inactive),49.4 µM (inactive),> 100 µM (inactive),> 100 µM (inactive),> 100 µM (inactive),> 100 µM (inactive),> 100 µM (inactive),> 100 µM (inactive),> 100 µM (inactive),–,> 100 µM (inactive),> 100 µM (inactive)
COc1ccc(C(CCC(C)=O)C(=O)O)cc1OC (stereo not drawn),> 100 µM (inactive),> 100 µM (inactive),> 100 µM (inactive),–,> 100 µM,> 100 µM (inactive),> 100 µM (inactive),–,–,–,> 100 µM (inactive),> 100 µM (inactive),> 100 µM (inactive),–,> 100 µM (inactive),> 100 µM (inactive),> 100 µM (inactive)
O=[N+]([O-])c1ccc(C[P+]2(c3ccccc3)CCCCC2)cc1.[O-][Cl+3]([O-])([O-])[O-],> 100 µM (inactive),> 100 µM (inactive),> 100 µM (inactive),> 100 µM (inactive),72.1 µM,–,> 100 µM (inactive),> 100 µM (inactive),> 100 µM (inactive),> 100 µM (inactive),–,> 100 µM (inactive),> 100 µM (inactive),> 100 µM (inactive),> 100 µM (inactive),> 100 µM (inactive),> 100 µM (inactive)
CCSC(SCC)=C1C(=O)N(c2ccccc2)N=C1C,13.1 µM (inactive),2.27 µM (inactive),13.7 µM (inactive),14.5 µM (inactive),12.3 µM,6.38 µM (inactive),19.3 µM (inactive),6.98 µM (inactive),15.7 µM (inactive),1.95 µM (inactive),–,7.67 µM (inactive),23.7 µM (inactive),17.9 µM (inactive),25.2 µM (inactive),10.1 µM (inactive),13.7 µM (inactive)
Nc1cccc(S(=O)(=O)NCC(=O)O)c1,> 100 µM (inactive),> 100 µM (inactive),> 100 µM (inactive),> 100 µM (inactive),> 100 µM,–,> 100 µM (inactive),> 100 µM (inactive),> 100 µM (inactive),> 100 µM (inactive),> 100 µM (inactive),> 100 µM (inactive),> 100 µM (inactive),> 100 µM (inactive),> 100 µM (inactive),> 100 µM (inactive),> 100 µM (inactive)
COc1ccc(C[C@]23CCC(=O)N2CCc2cc(OC)c(O)cc23)cc1O,> 100 µM (inactive),> 100 µM (inactive),> 100 µM (inactive),> 100 µM (inactive),> 100 µM,> 100 µM (inactive),> 100 µM (inactive),> 100 µM (inactive),> 100 µM (inactive),–,> 100 µM (inactive),> 100 µM (inactive),> 100 µM (inactive),–,> 100 µM (inactive),> 100 µM (inactive),> 100 µM (inactive)
CC1(O)CCC2(C)C(=O)C1(C)CCC21OCCO1 (stereo not drawn),> 100 µM (inactive),> 100 µM (inactive),> 100 µM (inactive),> 100 µM (inactive),> 100 µM,> 100 µM (inactive),> 100 µM (inactive),> 100 µM (inactive),> 100 µM (inactive),> 100 µM (inactive),–,> 100 µM (inactive),> 100 µM (inactive),> 100 µM (inactive),> 100 µM (inactive),> 100 µM (inactive),–
COc1ccc(CNc2cc(OC)cc(OC)c2)cc1,> 37.6 µM (inactive),> 100 µM (inactive),60.8 µM (inactive),> 87.1 µM (inactive),–,58.9 µM (inactive),48.6 µM (inactive),> 42.9 µM (inactive),61.1 µM (inactive),23.1 µM (inactive),68.9 µM (inactive),> 49.7 µM (inactive),–,> 66.7 µM (inactive),> 100 µM (inactive),–,52 µM (inactive)
